Test results: BindingDB's records for patent US20260001888 (Merck Sharp & Dohme, 2026)

The compounds below were run against High affinity cGMP-specific 3',5'-cyclic phosphodiesterase 9A (Homo sapiens, UniProt O76083) (assay: PDE9 Inhibitory Activity Assay).
Method: Human PDE9 (PDE9A2, GenBank Accession No. NM_001001567), full length with N-terminal GST tag, was purchased from BPS Bioscience. The fluorescence polarization assay for cyclic nucleotide phosphodiesterases was performed using an IMAP FP kit supplied by Molecular Devices, Sunnyvale, CA (product #R8139). IMAP technology has been applied previously to phosphodiesterase assays (Huang, W., et al., J. Biomol Screen, 2002, 7:215). Assays were performed at room temperature in 384-well microtiter plates with an incubation volume of 20.2 μL. Solutions of test compounds were prepared in DMSO and serially diluted with DMSO to yield 8 μL of each of 10 solutions differing by 3-fold in concentration, at 32 serial dilutions per plate. 100% inhibition is determined using a known PDE9 inhibitor, such as 1-(2-chlorophenyl)-6-[(2R)-3,3,3-trifluoro-2-methylpropyl]-1,5-dihydro-4H-pyrazolo[3,4-d]pyrimidine-4-one (BAY 73-6691) (Wunder et al, Mol. Pharmacol., 2005, 68 (6): 1775-81), (6-[(3S,4S)-4-methyl-1-(pyrimidin-2-ylmethyl) pyrrolidin-3-yl]-1-(tetrahydro-2H-pyran-4-yl)-1,5-dihydro-4H-pyrazolo[3,4-d]pyrimidin-4-one (PF-04447943) (Wager et al., ACS Chemical Neuroscience, 2010, 1:435-449). 0% of inhibition is determined by using DMSO (1% final concentrations). A Labcyte Echo 555 (Labcyte, Sunnyvale, CA) is used to dispense 200 nL from each well of the titration plate to the 384 well assay plate. Human PDE9A2 membrane preps were diluted to 1 ng/ml. […] PDE9 enzyme mix and compounds were mixed and incubated at room temperature for 30 min. Following which, FAMcGMP substrate was added, shaken and incubated for an additional 60 min at room temperature. The final concentration of human PDE9 membrane preparations were 0.5 ng/ml. The final concentration of FAM-cGMP was 50 nM. After the incubation period, the enzymatic reaction was stopped by addition of binding solution (IMAP-FP, Molecular Devices, comprised of 80% Solution A, 20% Solution B and a 1:600 dilution of binding reagent) to each well. The plates were shaken then incubated at room temperature for 1 h prior to determining the fluorescence polarization (mP) using a Perkin Elmer En Vision™ plate reader (Waltham, MA).

Chain of High affinity cGMP-specific 3',5'-cyclic phosphodiesterase 9A (O76083 whole entry): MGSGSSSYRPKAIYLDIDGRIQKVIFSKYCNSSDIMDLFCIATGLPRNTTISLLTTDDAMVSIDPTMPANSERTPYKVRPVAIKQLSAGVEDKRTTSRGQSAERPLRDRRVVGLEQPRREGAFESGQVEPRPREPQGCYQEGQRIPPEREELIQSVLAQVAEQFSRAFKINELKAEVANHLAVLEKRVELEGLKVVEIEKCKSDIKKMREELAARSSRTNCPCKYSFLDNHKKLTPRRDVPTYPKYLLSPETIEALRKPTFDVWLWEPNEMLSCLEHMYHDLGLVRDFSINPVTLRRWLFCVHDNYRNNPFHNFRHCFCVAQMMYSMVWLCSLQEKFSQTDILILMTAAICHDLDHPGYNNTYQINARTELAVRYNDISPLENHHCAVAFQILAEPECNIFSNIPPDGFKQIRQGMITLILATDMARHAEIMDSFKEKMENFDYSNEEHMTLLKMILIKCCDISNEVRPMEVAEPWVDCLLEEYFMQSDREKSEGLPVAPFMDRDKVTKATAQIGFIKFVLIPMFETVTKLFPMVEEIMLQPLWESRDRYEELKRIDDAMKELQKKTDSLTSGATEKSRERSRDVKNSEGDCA

Compound	Ki [nM]
CCC(c1ncc(OC(F)(F)F)cn1)N(C)c1nc2c(c(C#N)nn2C(C)c2ccc(C(F)(F)F)nc2)c(=O)[nH]1 (single isomer, unassigned; form 3) [US20260001888, Example 61]	0.17
CCC(c1ncc(OC(F)(F)F)cn1)N(C)c1nc2c(c(C#N)nn2C(C)c2ccc(C(F)(F)F)nc2)c(=O)[nH]1 (single isomer, unassigned; form 2) [US20260001888, Example 60]	1.06
CCC(c1ncc(OC(F)(F)F)cn1)N(C)c1nc2c(c(C#N)nn2C(C)c2ccc(C(F)(F)F)nc2)c(=O)[nH]1 (single isomer, unassigned; form 1) [US20260001888, Example 59]	12.1
CCC(c1ncc(OC(F)(F)F)cn1)N(C)c1nc2c(c(C#N)nn2C(C)c2ccc(C(F)(F)F)nc2)c(=O)[nH]1 (single isomer, unassigned; form 4) [US20260001888, Example 62]	50.7
